ChEMBL document CHEMBL1201862, “PubChem BioAssay data set” (2004)
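In this assay, cells in 96-well plates receive the compound at five concentrations for 48 hours. Endpoints are linearly interpolated between the surrounding concentrations. GI50 marks 50% less growth.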 Active and inactive are the calls of the source. Rule as the data show it: active = GI50 up to about 1.1 µM and inactive = higher.

Experiments:
Assay in all cases: DTP human tumour cell line panel, 48 h
NCI-H460 = system: NCI-H460
SK-MEL-2 = system: SK-MEL-2
Hs-578T = system: Hs-578T
A549 = system: A549
SF-539 = system: SF-539
CAKI-1 = system: CAKI-1
MCF7 = system: MCF7
HOP-62 = system: HOP-62
HCC 2998 = system: HCC 2998
MOLT-4 = system: MOLT-4
HCT-116 = system: HCT-116
OVCAR-3 = system: OVCAR-3
SR = system: SR
KM12 = system: KM12
786-0 = system: 786-0
HL-60 = system: HL-60
MDA-N = system: MDA-N

SMILES	GI50 (NCI-H460)	GI50 (SK-MEL-2)	GI50 (Hs-578T)	GI50 (A549)	GI50 (SF-539)	GI50 (CAKI-1)	GI50 (MCF7)	GI50 (HOP-62)	GI50 (HCC 2998)	GI50 (MOLT-4)	GI50 (HCT-116)	GI50 (OVCAR-3)	GI50 (SR)	GI50 (KM12)	GI50 (786-0)	GI50 (HL-60)	GI50 (MDA-N)
c1ccc(C2C3=C(c4ccccc4CC3)N3c4cc5c(cc4=NC34CCCCC24)Nc2ccccc2N=5)cc1 (stereo not drawn)	5.14 µM (inactive)	> 10 µM (inactive)	> 10 µM (inactive)	> 10 µM (inactive)	> 10 µM (inactive)	> 10 µM (inactive)	7.69 µM (inactive)	> 10 µM (inactive)	> 10 µM (inactive)	2.4 µM (inactive)	5.55 µM (inactive)	> 10 µM (inactive)	1.11 µM (active)	> 10 µM (inactive)	7.14 µM (inactive)	3.77 µM (inactive)	5.83 µM (inactive)
Cc1cc(O)c(C(C)C)cc1C(=S)Nc1ccc(Cl)cc1	11.1 µM (inactive)	14.1 µM (inactive)	9.1 µM (inactive)		14.3 µM (inactive)	14.6 µM (inactive)	8.11 µM (inactive)	18.5 µM (inactive)	15.1 µM (inactive)	3.4 µM (inactive)	13 µM (inactive)	14.7 µM (inactive)	4.95 µM (inactive)	10.1 µM (inactive)	14.1 µM (inactive)	7.05 µM (inactive)	11.4 µM (inactive)
Nc1ncnc2c1ncn2C1OC(CO)CC1O (stereo not drawn)			25.5 µM (inactive)	75.7 µM (inactive)	34.7 µM (inactive)	> 100 µM (inactive)	6.08 µM (inactive)	29.3 µM (inactive)	19 µM (inactive)	> 100 µM (inactive)	20 µM (inactive)	39.3 µM (inactive)	> 100 µM (inactive)	22 µM (inactive)	17.5 µM (inactive)	> 10 µM (inactive)	38.7 µM (inactive)
O=C(/C=C/c1ccc2c(c1)OCO2)Cc1nc2ccccc2[nH]c1=O	22.6 µM (inactive)	22 µM (inactive)	14.1 µM (inactive)	23.4 µM (inactive)	75 µM (inactive)	16.8 µM (inactive)	33.9 µM (inactive)	17.5 µM (inactive)	26.5 µM (inactive)	38.9 µM (inactive)	22.5 µM (inactive)	27.3 µM (inactive)	25.5 µM (inactive)	18.9 µM (inactive)	16.7 µM (inactive)	44.3 µM (inactive)	26.6 µM (inactive)
COc1nn(Cc2ccccn2)c2ccc([N+](=O)[O-])cc12	> 100 µM (inactive)	51.1 µM (inactive)	19.4 µM (inactive)	> 100 µM (inactive)	27.4 µM (inactive)	51.2 µM (inactive)	> 100 µM (inactive)	> 100 µM (inactive)	84.7 µM (inactive)	53.1 µM (inactive)	62.4 µM (inactive)	> 100 µM (inactive)	28.4 µM (inactive)	> 100 µM (inactive)	> 100 µM (inactive)	20.2 µM (inactive)	27.8 µM (inactive)
CCOC(=O)c1cc(NC(=O)c2ccccc2)c(=O)n2c(cc3c(Cl)cccc32)c1O	> 100 µM (inactive)	> 100 µM (inactive)	> 100 µM (inactive)	> 100 µM (inactive)	> 100 µM (inactive)	> 100 µM (inactive)	> 100 µM (inactive)	> 100 µM (inactive)	> 100 µM (inactive)	> 100 µM (inactive)	> 100 µM (inactive)	> 100 µM (inactive)	> 100 µM (inactive)	> 100 µM (inactive)	> 100 µM (inactive)	> 100 µM (inactive)	> 100 µM (inactive)
C=C(C)C(=O)OC1C(C(C)CCCO)=C(CO)CC2OC(=O)C(=C)C21 (stereo not drawn)	16.4 µM (inactive)	20.5 µM (inactive)	16.8 µM (inactive)	23.2 µM (inactive)	23 µM (inactive)	17.1 µM (inactive)	11 µM (inactive)	26.5 µM (inactive)	17.7 µM (inactive)	18.4 µM (inactive)	14.6 µM (inactive)	17.6 µM (inactive)	14.5 µM (inactive)	12.6 µM (inactive)	4.13 µM (inactive)	6.41 µM (inactive)	16.7 µM (inactive)
CO/C(C)=N/CCC1=CCCCC1	> 100 µM (inactive)	> 100 µM (inactive)	> 100 µM (inactive)	> 100 µM (inactive)		> 100 µM (inactive)	> 100 µM (inactive)	> 100 µM (inactive)	52.5 µM (inactive)	> 100 µM (inactive)	> 100 µM (inactive)	89.1 µM (inactive)	0.104 µM (active)	> 100 µM (inactive)	> 100 µM (inactive)		> 100 µM (inactive)
CCC(C)NC1=NCC(C)S1 (stereo not drawn)	> 100 µM (inactive)	> 100 µM (inactive)	> 100 µM (inactive)	> 100 µM (inactive)	> 100 µM (inactive)	> 100 µM (inactive)	> 100 µM (inactive)	> 100 µM (inactive)	> 100 µM (inactive)	> 100 µM (inactive)	> 100 µM (inactive)	> 100 µM (inactive)	> 100 µM (inactive)	> 100 µM (inactive)		> 100 µM (inactive)	> 100 µM (inactive)
COc1ccccc1N1CCN(CCCN2C(C(=O)c3ccccc3)=C(O)c3c(C)cc(C)nc3S2(=O)=O)CC1	52.8 µM (inactive)	> 100 µM (inactive)	59.3 µM (inactive)	47.2 µM (inactive)	> 100 µM (inactive)	79.6 µM (inactive)	96.4 µM (inactive)	77.8 µM (inactive)		24.8 µM (inactive)	61.2 µM (inactive)	55 µM (inactive)	46.2 µM (inactive)	> 100 µM (inactive)	39.5 µM (inactive)	79.4 µM (inactive)	> 100 µM (inactive)
CCOC1=NC(C(F)(F)F)(C(F)(F)F)N=C(N2CCOCC2)O1	> 100 µM (inactive)	> 100 µM (inactive)	> 100 µM (inactive)	> 100 µM (inactive)	> 100 µM (inactive)	> 100 µM (inactive)	> 100 µM (inactive)		> 100 µM (inactive)	> 100 µM (inactive)	> 100 µM (inactive)	> 100 µM (inactive)	> 100 µM (inactive)	> 100 µM (inactive)		89.5 µM (inactive)	> 100 µM (inactive)
CCOC(=O)c1sc2nc(SC)nc3c2c1NC(=O)CN3c1ccc(F)cc1	> 100 µM (inactive)	54.3 µM (inactive)	27.1 µM (inactive)	18.6 µM (inactive)	15.9 µM (inactive)	> 100 µM (inactive)	87.3 µM (inactive)	15.7 µM (inactive)	34.6 µM (inactive)	> 100 µM (inactive)	26.4 µM (inactive)	26.4 µM (inactive)	> 100 µM (inactive)	> 100 µM (inactive)		98.6 µM (inactive)	37.9 µM (inactive)
COP(=O)(O)C(N)Cc1c[nH]c2ccccc12 (stereo not drawn)	> 100 µM (inactive)	> 100 µM (inactive)	> 100 µM (inactive)	> 100 µM (inactive)		> 100 µM (inactive)	> 100 µM (inactive)	> 100 µM (inactive)	> 100 µM (inactive)	> 100 µM (inactive)	> 100 µM (inactive)	> 100 µM (inactive)	> 100 µM (inactive)			> 10 µM (inactive)	> 100 µM (inactive)
CC(=O)C1(c2ccccc2)CCCN(C)CC1 (stereo not drawn)	> 100 µM (inactive)	> 100 µM (inactive)	> 100 µM (inactive)			> 100 µM (inactive)	> 100 µM (inactive)	> 100 µM (inactive)	> 100 µM (inactive)	> 100 µM (inactive)	> 100 µM (inactive)	> 100 µM (inactive)	> 100 µM (inactive)	> 100 µM (inactive)			> 10 µM (inactive)
CCNC(=O)Nc1cccc(NC(=O)NCC)n1	> 100 µM (inactive)		> 100 µM (inactive)	> 100 µM (inactive)	> 100 µM (inactive)	75.2 µM (inactive)	57.1 µM (inactive)	81.8 µM (inactive)	62.1 µM (inactive)	> 100 µM (inactive)	> 100 µM (inactive)	> 100 µM (inactive)	51.4 µM (inactive)	> 100 µM (inactive)	> 100 µM (inactive)	34.1 µM (inactive)	> 100 µM (inactive)
Cc1cc(Cc2c(C)c(C)c(Cc3cc(C)cc(C(C)(C)C)c3O)c(C)c2C)c(O)c(C(C)(C)C)c1	> 100 µM (inactive)	> 100 µM (inactive)	> 100 µM (inactive)	> 100 µM (inactive)	> 100 µM (inactive)	> 100 µM (inactive)	> 100 µM (inactive)	> 100 µM (inactive)		1.56 µM (inactive)	> 100 µM (inactive)	> 100 µM (inactive)	1.21 µM (inactive)	> 100 µM (inactive)	> 100 µM (inactive)	14.4 µM (inactive)	> 100 µM (inactive)
ClC1=C(Cc2ccccc2)Cc2ccc3c(c21)CCC3			23.2 µM (inactive)	33.6 µM (inactive)	74.3 µM (inactive)	41.4 µM (inactive)	18.9 µM (inactive)	34.1 µM (inactive)	20 µM (inactive)	19.1 µM (inactive)	28.3 µM (inactive)	36.4 µM (inactive)	18.3 µM (inactive)	18.3 µM (inactive)	30.4 µM (inactive)	19.7 µM (inactive)	36.6 µM (inactive)
Cc1ccc(Cc2nn(C)c(=O)n2-n2cccc2)cc1	> 100 µM (inactive)	> 100 µM (inactive)	> 100 µM (inactive)	> 100 µM (inactive)		> 100 µM (inactive)	> 100 µM (inactive)	> 100 µM (inactive)	> 100 µM (inactive)	> 100 µM (inactive)	> 100 µM (inactive)	> 100 µM (inactive)	> 100 µM (inactive)	> 100 µM (inactive)	> 100 µM (inactive)		> 100 µM (inactive)
